These results are taken from patent US20260184663A1, “INDENE COMPOUNDS, PHARMACEUTICAL COMPOSITIONS THEREOF, AND THEIR THERAPEUTIC APPLICATIONS” (NucMito Pharmaceuticals co. Ltd., priority 2022, published 2026).

Holding throughout (assay type): cell-based
Assay [1] deals with A431 (epidermoid carcinoma). The assay can be described thus: Antiproliferative activity (CCK-8 cell viability), A431. As to conditions: Homo sapiens, 72 h; for inhibition at 3.3 µM: A-431, Compound concentration: 3.3 μM; for inhibition at 3.3 µM / inhibition at 10 µM: read-out: Antiproliferative activity in cancerous cells, A431 (inhibition of cell growth); for inhibition at 10 µM: A-431, Compound concentration: 10 μM. In outline:
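A431 epidermoid carcinoma cells grown in DMEM with 10% FBS were plated at 2,000-5,000 cells/well in 96-well plates. After attachment they were exposed to compound at 3.3 μM, 10 μM, or 30 μM for 72 h at 37° C. Viability was then assessed by CCK-8 against DMSO vehicle-treated wells.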

For assay [2], the system named is HepG2 (liver cancer). The experiment in a line: Antiproliferative activity (CCK-8 cell viability), HepG2. As to conditions: Homo sapiens, 72 h, read-out: Antiproliferative activity in cancerous cells, HepG2 (inhibition of cell growth); for inhibition at 3.3 µM: Compound concentration: 3.3 μM; for inhibition at 10 µM: Compound concentration: 10 μM. In outline: (§1)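 Cells grown in DMEM (HepG2, SW480), MEM (HeLa) or F-12K (A549), each with 10% FBS, then exposed to compound at 3.3, 10 or 30 μM for 72 h at 37 °C. CCK-8 absorbance at 450 nm; viability expressed as percent of DMSO-treated cells, graded as growth inhibition bands.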

In assay [3] the test system is B16F10 (malignant melanoma). The assay can be described thus: Antiproliferative activity (CCK-8 cell viability), B16F10. The note with it: Mus musculus, 72 h; for inhibition at 3.3 µM: B16-F10, Compound concentration: 3.3 μM; for inhibition at 3.3 µM / inhibition at 10 µM: read-out: Antiproliferative activity in cancerous cells, B16F10 (inhibition of cell growth); for inhibition at 10 µM: B16-F10, Compound concentration: 10 μM. An outline of the steps: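 B16F10 melanoma cells grown in DMEM with 10% FBS were plated in 96-well plates at 2,000-5,000 cells/well. After attachment they were exposed to compound in medium for 72 h at 37° C. CCK-8 solution (10 μL) was then added, and after 4 h at 37° C absorbance was read at 450 nm.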

For assay [4], the system named is alpha-smooth muscle actin (α-SMA). The assay can be described thus: Inhibition of TGF-β induced expression of alpha-smooth muscle actin (α-SMA) in CFSC cells (western blot). The note with it: compound at 10 μM, TGF-β (10 ng/mL), 24 hours, band intensity vs TGF-β only. Here is the method:
The ability of a compound to inhabit the TGF-β induced expression of alpha-smooth muscle actin (α-SMA) was evaluated in CCl4-treated fat storing (CFSC) cells. α-SMA is considered as a reliable marker of hepatic stellate cell activation and a key biomarker for liver fibrosis.
CFSC cells maintained in a DMEM medium supplemented with 10% fetal bovine serum were seeded to 12-well culture dishes and grown to a confluence of 60-70% the next day. Culture was changed to a serum-free DMEM medium, and the cells were treated with a compound at 10 μM in the presence of TGF-β (10 ng/mL). The cells were incubated for another 24 hours. All culture was maintained at 37° C. in 5% carbon dioxide.
An NP-40 lysate solution (50 mM Tris (pH 7.4), 150 mM NaCl, 1% NP-40) with EDTA free cocktail added was used to lyse the cells on ice for 30 min. The lysate was collected and centrifuged at 4° C. for 10 min at 12,000 rpm. The pellet was discarded and the supernatant was transferred to a new tube. Cell lysates were loaded with 5× loading buffer and boiled for 10 min, resolved by 10% SDS-polyacrylamide gel electrophoresis (SDS-PAGE), and transferred to PVDF membrane. The membrane was blocked with 5% skim milk in Tris-buffered saline and TWEEN® 20 (TBST; 10 mM Tris-HCl (pH 8.0), 150 mM NaCl, 0.1% TWEEN® 20) for 1 h at room temperature and then incubated with α-SMA and β-actin antibodies overnight at 4° C. After washing twice with TBST, the membrane was probed with a horseradish […] anti-immunoglobulin (1:5000 dilution) for 1 h at room temperature. After two subsequent rinses in TBST, immunoreactive products were reacted with ECL and visualized by a UVP CHEMSTUDIO™ imaging system. The western blotting bands are quantitated using an ImageJ software. The percentage of inhibition was obtained by calculating the percentage decrease in the band intensity compared to the one treated with TGF-β only.
The results are summarized in Table 1, where A represents a value no less of 80% inhibition, B represents a value less than […] but no less than […], C represents a value less than 50% but no less than 30% inhibition, and D represents a value less than 30% inhibition with a compound at 10 μM.
A general note: Immunoblotting shows a protein as a band on a membrane.

For assay [5], the system named is HeLa (cervical cancer). The assay can be described thus: Antiproliferative activity (CCK-8 cell viability), HeLa. As to conditions: Homo sapiens, 72 h; for inhibition at 3.3 µM: Compound concentration: 3.3 μM; for inhibition at 3.3 µM / inhibition at 10 µM: read-out: Antiproliferative activity in cancerous cells, HELA (inhibition of cell growth); for inhibition at 10 µM: Compound concentration: 10 μM. In outline:
as §1

Assay [6] has as its system SW480 (colon cancer). The assay can be described thus: Antiproliferative activity (CCK-8 cell viability), SW480. As to conditions: Homo sapiens, 72 h, read-out: Antiproliferative activity in cancerous cells, SW480 (inhibition of cell growth); for inhibition at 3.3 µM: Compound concentration: 3.3 μM; for inhibition at 10 µM: Compound concentration: 10 μM. In outline: as §1

Assay [7] deals with A549 (lung adenocarcinoma). The experiment in a line: Antiproliferative activity (CCK-8 cell viability), A549. The note with it: Homo sapiens, 72 h, read-out: Antiproliferative activity in cancerous cells, A549 (inhibition of cell growth); for inhibition at 3.3 µM: Compound concentration: 3.3 μM; for inhibition at 10 µM: Compound concentration: 10 μM. In outline: as §1
The test system of assay [8] is MDA-MB-231 (breast cancer). The assay can be described thus: Antiproliferative activity (CCK-8 cell viability), MDA-MB-231. The note with it: Homo sapiens, 72 h, read-out: Antiproliferative activity in cancerous cells, MDA-MB-231 (inhibition of cell growth); for inhibition at 3.3 µM: Compound concentration: 3.3 μM; for inhibition at 10 µM: Compound concentration: 10 μM. An outline of the steps: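 MDA-MB-231 breast cancer cells, grown in DMEM with 10% FBS, were plated in 96-well plates at 2,000-5,000 cells/well. Once attached, they were exposed to compound and incubated at 37° C. for 72 h. Viability was then measured with CCK-8 (10 μL per well, 4 h at 37° C.) by absorbance at 450 nm, relative to DMSO vehicle wells.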

Each structure is given as a SMILES string.

`CC1=C(CC(=O)N2CCN(CCO)CC2)c2cc(F)ccc2/C1=C\c1ccc(Oc2ccc(F)cc2)cc1` [C37, (Z)-2-(5-Fluoro-1-(4-(4-fluorophenoxy)benzylidene)-2-methyl-1H-inden-3-yl)-1-(4-(2-hydroxyethyl)piperazin-1-yl)ethan-1-one]: the inhibition at 3.3 µM in assay [1], in assay [2], in assay [3], in assay [5], in assay [6] and in assay [7] was below 30% each time. The inhibition at 3.3 µM in assay [8] is below 30%. Also, the inhibition at 10 µM in assay [1] is below 30%; in assay [2] it was below 30%; in assay [3] it was below 30%; in assay [4], above 80%; in assay [5], below 30%; in assay [6] it was below 30%. Moreover, the inhibition at 10 µM in assay [7] and in assay [8] was below 30% in each case. Besides, the inhibition at 30 µM in assay [1] (A-431, Compound concentration: 30 μM, read-out: Antiproliferative activity in cancerous cells, A431) was 30 to 50%; in assay [3] (B16-F10, Compound concentration: 30 μM, read-out: Antiproliferative activity in cancerous cells, B16F10), below 30%; in assay [5] (Compound concentration: 30 μM, read-out: Antiproliferative activity in cancerous cells, HELA), below 30%.

On to `CC1=C(C=CC(=O)O)c2cc(F)ccc2/C1=C\c1ccc(Oc2ccc(F)cc2)cc1` [C33, 3-(5-Fluoro-1-((Z)-4-(4-fluorophenoxy)benzylidene)-2-methyl-1H-inden-3-yl)-acrylic acid], for which the inhibition at 10 µM in assay [4] was above 80%.

In turn, `CC1=C(CCC(=O)O)c2ccccc2/C1=C\c1cccc(Oc2ccccc2)c1` [C24, (Z)-3-(2-Methyl-1-(3-phenoxybenzylidene)-1H-inden-3-yl)propanoic acid] yielded an inhibition at 10 µM in assay [4] below 30%.

Compound `COc1cc(COc2ccc(F)cc2)ccc1/C=C1/C(C)=C(CC(=O)O)c2cc(F)ccc21` [B25, (Z)-2-(5-Fluoro-1-(4-((4-fluorophenoxy)methyl)-2-methoxybenzylidene)-2-methyl-1H-inden-3-yl)acetic acid] yielded an inhibition at 10 µM in assay [4] above 80%.

`CC1=C(CC(=O)O)c2cc(F)ccc2/C1=C\c1ccc(COc2ccc(F)cc2)cc1F` [B23, (Z)-2-(5-Fluoro-1-(2-fluoro-4-((4-fluorophenoxy)methyl)benzylidene)-2-methyl-1H-inden-3-yl)acetic acid] showed an inhibition at 10 µM in assay [4] of 50 to 80%.

For `CC1=C(C(C)C(=O)O)c2ccccc2/C1=C\c1ccc(C(C)C)cc1` (stereo not shown) [D3, (Z)-2-(1-(4-Isopropylbenzylidene)-2-methyl-1H-inden-3-yl)propanoic acid], the inhibition at 10 µM in assay [4] was below 30%.

Turning to `CC1=C(CCO)c2cc(F)ccc2/C1=C\c1cccc(Oc2ccccc2)c1` [A202, (Z)-2-(5-Fluoro-2-methyl-1-(3-phenoxybenzylidene)-1H-inden-3-yl)ethan-1-ol], in assay [4], the inhibition at 10 µM was below 30%.

Turning to `CC1=C(CC(=O)O)c2cc(F)ccc2/C1=C\c1ccc(Oc2ccc(Cl)c(Cl)c2)cc1` [C49, (Z)-2-(1-(4-(3,4-Dichlorophenoxy)benzylidene)-5-fluoro-2-methyl-1H-inden-3-yl)acetic acid], the inhibition at 3.3 µM in assay [1] was at least 50%; in assay [2], below 30%; in assay [3] it was below 30%; in assay [5], at least 50%; in assay [6], 30 to 50%; in assay [7], below 30%. Also, the inhibition at 3.3 µM in assay [8] is below 30%. Moreover, the inhibition at 10 µM in assay [1], in assay [2], in assay [3], in assay [5], in assay [6] and in assay [7] was at least 50% each time. In addition, the inhibition at 10 µM in assay [8] was at least 50%.

With `CC1=C(CC(=O)O)c2cc(F)ccc2/C1=C\c1cccc(Oc2ccc3ccccc3c2)c1` [C99, (Z)-2-(5-Fluoro-2-methyl-1-(3-(naphthalen-2-yloxy)benzylidene)-1H-inden-3-yl)acetic acid], the inhibition at 3.3 µM in assay [1] is below 30%; in assay [2] it was below 30%; in assay [3], at least 50%; in assay [5] it was below 30%; in assay [6], below 30%; in assay [7], below 30%. The inhibition at 3.3 µM in assay [8] is below 30%. Also, the inhibition at 10 µM is below 30% in assay [1]; at least 50% in assay [2]; at least 50% in assay [3]; at least 50% in assay [5]; below 30% in assay [6]; below 30% in assay [7]. Moreover, in assay [8], the inhibition at 10 µM was 30 to 50%.
